Test system: OCI-Ly10 cells
Assay: Proliferation-Inhibitory Test Against Diffuse Large-Cell B-Cell Lymphoma OCI-Ly10 Strain
Format: cell-based
Details: Homo sapiens, 96 hours, alamarBlue
Description: OCI-Ly10 cells were cultured in IMDM medium (Iscove's Modified Dulbecco's Medium, Manufactured by Thermo Fisher Scientific Inc., hereinafter “medium”) containing 20% Fetal bovine serum and 1% penicillin-streptomycin (Nacalai Tesque, Inc.) in a 5% CO2 incubator. OCI-Ly10 cells were seeded to 96-well plate (20000 cells/well), compounds diluted with medium were added with final concentrations of 0.9 nM to 30000 nM (Final DMSO concentration, 0.3%), incubated for 96 hours and alamorBlue reagent (Thermo Fisher Scientific Inc.) was added.

Structure (SMILES) | IC50
Nc1nc(-c2cccc(-n3ccc4cc(C5CC5)cc(F)c4c3=O)c2CO)c2cc(-c3cc(F)cc(F)c3)[nH]c2n1 [Example 44, 2-{3-[2-amino-6-(3,5-difluorophenyl)-7H-pyrrolo[2,3-d]pyrimidin-4-yl]-2-(hydroxymethyl)phenyl}-6-cyclopropyl-8-fluoroisoquinolin-1(2H)-one] | 885 nM
Nc1nc(-c2cccc(-n3ccc4cc(C5CC5)cc(F)c4c3=O)c2CO)c2cc(-c3ccc(F)cn3)[nH]c2n1 [Example 45, 2-{3-[2-amino-6-(5-fluoropyridin-2-yl)-7H-pyrrolo[2,3-d]pyrimidin-4-yl]-2-(hydroxymethyl)phenyl}-6-cyclopropyl-8-fluoroisoquinolin-1(2H)-one] | 134 nM
Nc1nc(-c2cccc(-n3ccc4cc(C5CC5)cc(F)c4c3=O)c2CO)c2cc(-c3cncc(F)c3)[nH]c2n1 [Example 46, 2-{3-[2-amino-6-(5-fluoropyridin-3-yl)-7H-pyrrolo[2,3-d]pyrimidin-4-yl]-2-(hydroxymethyl)phenyl}-6-cyclopropyl-8-fluoroisoquinolin-1(2H)-one] | 564 nM
Nc1nc(-c2cccc(-n3ccc4cc(C5CC5)cc(F)c4c3=O)c2CO)c2cc(-c3ccc(N4CCOCC4)nc3)[nH]c2n1 [Example 48, 2-{3-[2-amino-6-(6-morpholinopyridin-3-yl)-7H-pyrrolo[2,3-d]pyrimidin-4-yl]-2-(hydroxymethyl)phenyl}-6-cyclopropyl-8-fluoroisoquinolin-1(2H)-one] | 54 nM
COc1cc(-c2cc3c(-c4cccc(-n5ccc6cc(C7CC7)cc(F)c6c5=O)c4CO)nc(N)nc3[nH]2)ccn1 [Example 49, 2-{3-[2-amino-6-(2-methoxypyridin-4-yl)-7H-pyrrolo[2,3-d]pyrimidin-4-yl]-2-(hydroxymethyl)phenyl}-6-cyclopropyl-8-fluoroisoquinolin-1(2H)-one] | 88 nM
Cc1ccc(-c2cc3c(-c4cccc(-n5ccc6cc(C7CC7)cc(F)c6c5=O)c4CO)nc(N)nc3[nH]2)cc1 [Example 56, 2-{3-[2-amino-6-(p-tolyl)-7H-pyrrolo[2,3-d]pyrimidin-4-yl]-2-(hydroxymethyl)phenyl}-6-cyclopropyl-8-fluoroisoquinolin-1(2H)-one] | 412 nM
Nc1nc(-c2cccc(-n3ccc4cc(C5CC5)cc(F)c4c3=O)c2CO)c2cc(-c3cnn(Cc4ccccc4)c3)[nH]c2n1 [Example 58, 2-{3-[2-amino-6-(1-benzyl-1H-pyrazol-4-yl)-7H-pyrrolo[2,3-d]pyrimidin-4-yl]-2-(hydroxymethyl)phenyl}-6-cyclopropyl-8-fluoroisoquinolin-1(2H)-one] | 27 nM
CN(C)c1ccc(-c2cc3c(-c4cccc(-n5ccc6cc(C7CC7)cc(F)c6c5=O)c4CO)nc(N)nc3[nH]2)cn1 [Example 59, 2-(3-{2-amino-6-[6-(dimethylamino)pyridin-3-yl]-7H-pyrrolo[2,3-d]pyrimidin-4-yl}-2-(hydroxymethyl)phenyl)-6-cyclopropyl-8-fluoroisoquinolin-1(2H)-one] | 63 nM
Nc1nc(-c2cccc(-n3ccc4cc(C5CC5)cc(F)c4c3=O)c2CO)c2cc(-c3cnn(-c4ccccc4)c3)[nH]c2n1 [Example 64, 2-{3-[2-amino-6-(1-phenyl-1H-pyrazol-4-yl)-7H-pyrrolo[2,3-d]pyrimidin-4-yl]-2-(hydroxymethyl)phenyl}-6-cyclopropyl-8-fluoroisoquinolin-1(2H)-one] | 642 nM
Nc1nc(-c2cccc(-n3ccc4cc(C5CC5)cc(F)c4c3=O)c2CO)c2cc(-c3ccc(CN4CCSC4)cc3)[nH]c2n1 [Example 67, 2-(3-{2-amino-6-[4-(thiazolidin-3-ylmethyl)phenyl]-7H-pyrrolo[2,3-d]pyrimidin-4-yl)-2-(hydroxymethyl)phenyl}-6-cyclopropyl-8-fluoroisoquinolin-1(2H)-one] | 82 nM
CC(C)(C)OC(=O)N1CC=C(c2cc3c(-c4cccc(-n5ccc6cc(C7CC7)cc(F)c6c5=O)c4CO)nc(N)nc3[nH]2)CC1 [Example 68, tert-butyl 4-{2-amino-4-[3-(6-cyclopropyl-8-fluoro-1-oxoisoquinolin-2(1H)-yl)-2-(hydroxymethyl)phenyl]-7H-pyrrolo[2,3-d]pyrimidin-6-yl}-5,6-dihydropyridine-1(2H)-carboxylate] | 115 nM

Results, then the molecule that gave them:

IC50 | Structure (SMILES)
204 nM | CNc1ccc(-c2cc3c(-c4cccc(-n5ccc6cc(C7CC7)cc(F)c6c5=O)c4CO)nc(N)nc3[nH]2)cn1 [Example 47, 2-(3-{2-amino-6-[6-(methylamino)pyridin-3-yl]-7H-pyrrolo[2,3-d]pyrimidin-4-yl}-2-(hydroxymethyl)phenyl)-6-cyclopropyl-8-fluoroisoquinolin-1(2H)-one]
13 nM | CN1CCN(Cc2ccc(-c3cc4c(-c5cccc(-n6ccc7cc(C8CC8)cc(F)c7c6=O)c5CO)nc(N)nc4[nH]3)cc2)CC1=O [Example 55, 2-[3-(2-amino-6-{4-[(4-methyl-3-oxopiperazin-1-yl)methyl]phenyl}-7H-pyrrolo[2,3-d]pyrimidin-4-yl)-2-(hydroxymethyl)phenyl]-6-cyclopropyl-8-fluoroisoquinolin-1(2H)-one]
64 nM | COCCNc1cncc(-c2cc3c(-c4cccc(-n5ccc6cc(C7CC7)cc(F)c6c5=O)c4CO)nc(N)nc3[nH]2)c1 [Example 60, 2-[3-(2-amino-6-{5-[(2-methoxyethyl)amino]pyridin-3-yl}-7H-pyrrolo[2,3-d]pyrimidin-4-yl)-2-(hydroxymethyl)phenyl}-6-cyclopropyl-8-fluoroisoquinolin-1(2H)-one]
15 nM | CCn1cc(-c2cc3c(-c4cccc(-n5ccc6cc(C7CC7)cc(F)c6c5=O)c4CO)nc(N)nc3[nH]2)cn1 [Example 62, 2-{3-[2-amino-6-(1-ethyl-1H-pyrazol-4-yl)-7H-pyrrolo[2,3-d]pyrimidin-4-yl]-2-(hydroxymethyl)phenyl}-6-cyclopropyl-8-fluoroisoquinolin-1(2H)-one]
16 nM | CC(C)n1cc(-c2cc3c(-c4cccc(-n5ccc6cc(C7CC7)cc(F)c6c5=O)c4CO)nc(N)nc3[nH]2)cn1 [Example 63, 2-{3-[2-amino-6-(1-isopropyl-1H-pyrazol-4-yl)-7H-pyrrolo[2,3-d]pyrimidin-4-yl]-2-(hydroxymethyl)phenyl}-6-cyclopropyl-8-fluoroisoquinolin-1(2H)-one]
276 nM | COc1ccc(-c2cc3c(-c4cccc(-n5ccc6cc(C7CC7)cc(F)c6c5=O)c4CO)nc(N)nc3[nH]2)cn1 [Example 65, 2-{3-[2-amino-6-(6-methoxypyridin-3-yl)-7H-pyrrolo[2,3-d]pyrimidin-4-yl]-2-(hydroxymethyl)phenyl}-6-cyclopropyl-8-fluoroisoquinolin-1(2H)-one]
4 nM | Nc1nc(-c2cccc(-n3ccc4cc(C5CC5)cc(F)c4c3=O)c2CO)c2cc(C3=CCN(C(=O)N4CCOCC4)CC3)[nH]c2n1 [Example 70, 2-(3-{2-amino-6-[1-(morpholine-4-carbonyl)-1,2,3,6-tetrahydropyridin-4-yl]-7H-pyrrolo[2,3-d]pyrimidin-4-yl}-2-(hydroxymethyl)phenyl)-6-cyclopropyl-8-fluoroisoquinolin-1(2H)-one]
127 nM | CC(C)(C)n1cc(-c2cc3c(-c4cccc(-n5ccc6cc(C7CC7)cc(F)c6c5=O)c4CO)nc(N)nc3[nH]2)cn1 [Example 72, 2-(3-{2-amino-6-[1-(tert-butyl)-1H-pyrazol-4-yl]-7H-pyrrolo[2,3-d]pyrimidin-4-yl}-2-(hydroxymethyl)phenyl)-6-cyclopropyl-8-fluoroisoquinolin-1(2H)-one]

Reference: patent US10793575B2, “Oxoisoquinoline derivatives” (CARNA BIOSCIENCES, INC., priority 2016, dated 2020)
